Measured values taken from patent US10537563B2, “Methods for treating ocular disease using inhibitors of CSF-1R” (NOVARTIS AG, priority 2016, dated 2020).

What was measured:
[1] = biological target: Aurora_A (Homo sapiens, UniProt O14965); test: In vitro kinase assay (Table 1); format: biochemical
[2] = biological target: CDC2_cyclinB (Homo sapiens, UniProt P06493); test: In vitro kinase assay (Table 1); format: biochemical
[3] = biological target: Ck1 delta (Homo sapiens, UniProt P48730); test: In vitro kinase assay (Table 1); format: biochemical
[4] = biological target: Ck1gamma2 (Homo sapiens, UniProt P78368); test: In vitro kinase assay (Table 1); format: biochemical
[5] = biological target: cRaf (Homo sapiens, UniProt P04049); test: In vitro kinase assay (Table 1); format: biochemical
[6] = biological target: Hyl (Homo sapiens, UniProt P42679); test: In vitro kinase assay (Table 1); format: biochemical
[7] = biological target: JNK2alpha2 (Homo sapiens, UniProt P45984); test: In vitro kinase assay (Table 1); format: biochemical
[8] = biological target: KDR (Homo sapiens, UniProt P35968); test: In vitro kinase assay (Table 1); format: biochemical; conditions: KDR=VEGF receptor
[9] = biological target: mut_bRaf_V599E (Homo sapiens, UniProt P15056, V600E); test: In vitro kinase assay (Table 1); format: biochemical
[10] = biological target: PHKG2 (Homo sapiens, UniProt P15735); test: In vitro kinase assay (Table 1); format: biochemical
[11] = biological target: PIK3Cbeta (Homo sapiens, UniProt P42338); test: In vitro kinase assay (Table 1); format: biochemical
[12] = biological target: Pim2 (Homo sapiens, UniProt Q9P1W9); test: In vitro kinase assay (Table 1); format: biochemical
[13] = biological target: PKC_theta (Homo sapiens, UniProt Q04759); test: In vitro kinase assay (Table 1); format: biochemical
[14] = biological target: RAF1_4_CR (Homo sapiens, UniProt P04049); test: In vitro kinase assay (Table 1); format: biochemical
[15] = biological target: smMLCK (Homo sapiens, UniProt Q15746); test: In vitro kinase assay (Table 1); format: biochemical
[16] = biological target: TSSK1 (Homo sapiens, UniProt Q9BXA7); test: In vitro kinase assay (Table 1); format: biochemical
[17] = biological target: T1, Syk (h) (Homo sapiens, UniProt P43405); test: Kinase profiling at Invitrogen; format: biochemical
T1 construct: purchased Invitrogen

[18] = biological target: T2, BAF/Tel-TIE2-1.2/sACP (Homo sapiens, UniProt Q02763); test: BaF3 proliferation assay; format: cell-based, murine
T2 construct: fused on or other part: P41212 (Transcription factor ETV6)

[19] = biological target: T3, BAF/Tel-FLT4-Q2/sACP (Homo sapiens, UniProt P35916); test: BaF3 proliferation assay; format: cell-based, murine
T3 construct: fused on or other part: P41212 (Transcription factor ETV6)

[20] = biological target: T4, BAF/Tel-FLT1-Q1/sACP (Homo sapiens, UniProt P17948); test: BaF3 proliferation assay; format: cell-based, murine
T4 construct: fused on or other part: P41212 (Transcription factor ETV6)

[21] = biological target: T5, BAF/Tel-FGFR2-Q1/sACP (Homo sapiens, UniProt P21802); test: BaF3 proliferation assay; format: cell-based, murine
T5 construct: fused on or other part: P41212 (Transcription factor ETV6)

[22] = biological target: T6, BAF/Tel-FGFR4-Q4/sACP (Homo sapiens, UniProt P22455); test: BaF3 proliferation assay; format: cell-based, murine
T6 construct: fused on or other part: P41212 (Transcription factor ETV6)

[23] = biological target: T7, BAF/Tel-RET-Q1/sACP (Homo sapiens, UniProt P07949); test: BaF3 proliferation assay; format: cell-based, murine
T7 construct: fused on or other part: P41212 (Transcription factor ETV6)

[24] = biological target: T8, BAF/Tel-TRKB-Q2/sACP (Homo sapiens, UniProt Q16620); test: BaF3 proliferation assay; format: cell-based, murine
T8 construct: fused on or other part: P41212 (Transcription factor ETV6)

[25] = biological target: T9, BAF/Tel-TRKA-Q.3/sACP (Homo sapiens, UniProt P04629); test: BaF3 proliferation assay; format: cell-based, murine
T9 construct: fused on or other part: P41212 (Transcription factor ETV6)

[26] = biological target: T10, BAF/Tel-IGF1R-FL-N.1/sACP (Homo sapiens, UniProt P08069); test: BaF3 proliferation assay; format: cell-based, murine
T10 construct: BAF/Tel-IGF1R-FL- N.1/sACP; fused on or other part: P41212 (Transcription factor ETV6)

[27] = biological target: T11, BAF/Tel-JAK3-S1.2/sACP (Homo sapiens, UniProt P52333); test: BaF3 proliferation assay; format: cell-based, murine
T11 construct: fused on or other part: P41212 (Transcription factor ETV6)

[28] = biological target: T12, BAF/Tel-JAK2-1.2/sACP (Homo sapiens, UniProt O60674); test: BaF3 proliferation assay; format: cell-based, murine
T12 construct: fused on or other part: P41212 (Transcription factor ETV6)

[29] = biological target: T13, BAF/Tel-TYK2-1.3/sACP (Homo sapiens, UniProt P29597); test: BaF3 proliferation assay; format: cell-based, murine
T13 construct: fused on or other part: P41212 (Transcription factor ETV6)

[30] = biological target: T14, BAF/Tel-FGR-2.1/sACP (Homo sapiens, UniProt P09769); test: BaF3 proliferation assay; format: cell-based, murine
T14 construct: fused on or other part: P41212 (Transcription factor ETV6)

[31] = biological target: T15, BAF/Tel-Lck-2.1/sACP (Homo sapiens, UniProt P06239); test: BaF3 proliferation assay; format: cell-based, murine
T15 construct: fused on or other part: P41212 (Transcription factor ETV6)

[32] = test system: BAF/bRaf Pim1-1/sACP; test: BaF3 proliferation assay; format: cell-based, murine; conditions: Mus musculus
[33] = test system: MCSF-dependent proliferation; test: MCSF-dependent proliferation; format: cell-based; conditions: read-out: MCSF-dependent proliferation cellular EC50
[34] = test system: cytokine-polarized human macrophages (M1 or M2); test: Survival of fully differentiated, cytokine-polarized human macrophages; format: cell-based
Description: (§1) Freshly isolated human PBMCs were used to purify human monocytes by negative selection using an indirect magnetic labeling system. […] Soluble factors such as cytokines (VEGFa, IL-6 etc.) and chemokines (IL-8, MCP-1, MMP9 etc.) in the culture supernatant were measured using commercial ELISA kits. The in vitro survival of human macrophages was measured using a commercially available CellTiter-Glo® system. Most observed results were repeated in multiple donors (n>5).

[35] = test system: MCP-1; test: MCP-1 production by human monocytes (ELISA); format: cell-based; conditions: Monocyte
Description: as §1

KDR, sequence (P35968 20-1356, species assumed): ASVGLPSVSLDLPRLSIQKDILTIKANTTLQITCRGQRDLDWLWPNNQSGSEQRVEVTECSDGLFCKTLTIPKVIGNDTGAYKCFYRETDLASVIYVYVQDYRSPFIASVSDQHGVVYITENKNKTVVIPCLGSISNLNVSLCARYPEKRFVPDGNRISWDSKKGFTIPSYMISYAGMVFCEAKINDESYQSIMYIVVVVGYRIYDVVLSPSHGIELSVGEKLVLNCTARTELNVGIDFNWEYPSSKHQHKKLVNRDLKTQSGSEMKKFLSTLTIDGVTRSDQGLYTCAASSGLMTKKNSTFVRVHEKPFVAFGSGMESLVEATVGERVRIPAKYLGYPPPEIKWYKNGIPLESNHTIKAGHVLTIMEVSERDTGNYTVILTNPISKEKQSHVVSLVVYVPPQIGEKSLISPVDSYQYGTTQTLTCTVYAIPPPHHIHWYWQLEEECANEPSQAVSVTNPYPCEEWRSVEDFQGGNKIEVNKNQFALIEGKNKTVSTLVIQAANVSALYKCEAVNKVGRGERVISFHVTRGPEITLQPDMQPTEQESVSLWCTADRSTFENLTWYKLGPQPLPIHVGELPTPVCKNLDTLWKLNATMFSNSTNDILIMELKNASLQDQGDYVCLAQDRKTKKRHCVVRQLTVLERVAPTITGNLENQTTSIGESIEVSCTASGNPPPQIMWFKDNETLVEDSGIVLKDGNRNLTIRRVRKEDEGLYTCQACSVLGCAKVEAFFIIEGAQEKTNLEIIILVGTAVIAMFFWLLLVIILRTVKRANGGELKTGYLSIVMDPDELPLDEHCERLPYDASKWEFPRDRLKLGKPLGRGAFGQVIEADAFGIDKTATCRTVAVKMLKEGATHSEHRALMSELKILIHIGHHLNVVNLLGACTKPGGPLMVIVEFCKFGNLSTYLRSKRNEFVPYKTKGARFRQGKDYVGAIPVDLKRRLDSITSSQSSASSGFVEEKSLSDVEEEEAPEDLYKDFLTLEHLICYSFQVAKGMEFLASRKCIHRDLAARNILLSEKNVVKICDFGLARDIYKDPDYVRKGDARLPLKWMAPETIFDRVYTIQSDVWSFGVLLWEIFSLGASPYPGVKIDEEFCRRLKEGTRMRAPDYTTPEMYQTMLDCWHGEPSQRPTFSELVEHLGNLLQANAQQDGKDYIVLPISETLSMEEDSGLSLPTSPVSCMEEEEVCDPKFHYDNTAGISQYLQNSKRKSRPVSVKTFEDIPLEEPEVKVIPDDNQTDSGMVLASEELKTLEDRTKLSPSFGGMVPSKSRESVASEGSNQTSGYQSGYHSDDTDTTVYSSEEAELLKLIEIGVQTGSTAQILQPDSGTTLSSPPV
T6 sequence (P22455 467-755 limits assumed, change not shown): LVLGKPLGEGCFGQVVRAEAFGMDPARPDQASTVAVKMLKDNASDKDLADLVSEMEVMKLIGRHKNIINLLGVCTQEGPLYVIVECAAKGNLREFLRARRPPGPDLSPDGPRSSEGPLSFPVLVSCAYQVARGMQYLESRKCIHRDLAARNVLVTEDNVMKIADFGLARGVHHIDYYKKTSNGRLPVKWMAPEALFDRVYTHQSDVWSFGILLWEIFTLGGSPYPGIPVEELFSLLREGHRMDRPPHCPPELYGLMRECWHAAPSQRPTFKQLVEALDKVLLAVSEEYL
T13 sequence (P29597 897-1176 limits assumed, change not shown): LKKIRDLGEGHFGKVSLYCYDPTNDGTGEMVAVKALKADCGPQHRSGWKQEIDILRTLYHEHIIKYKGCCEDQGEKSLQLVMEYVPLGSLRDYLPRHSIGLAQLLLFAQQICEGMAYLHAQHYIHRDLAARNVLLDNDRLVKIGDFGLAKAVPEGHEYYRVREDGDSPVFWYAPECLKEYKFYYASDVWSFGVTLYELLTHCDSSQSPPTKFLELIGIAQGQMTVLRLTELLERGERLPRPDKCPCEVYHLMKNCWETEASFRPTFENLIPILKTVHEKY
Hyl, sequence (P42679 whole entry, species assumed): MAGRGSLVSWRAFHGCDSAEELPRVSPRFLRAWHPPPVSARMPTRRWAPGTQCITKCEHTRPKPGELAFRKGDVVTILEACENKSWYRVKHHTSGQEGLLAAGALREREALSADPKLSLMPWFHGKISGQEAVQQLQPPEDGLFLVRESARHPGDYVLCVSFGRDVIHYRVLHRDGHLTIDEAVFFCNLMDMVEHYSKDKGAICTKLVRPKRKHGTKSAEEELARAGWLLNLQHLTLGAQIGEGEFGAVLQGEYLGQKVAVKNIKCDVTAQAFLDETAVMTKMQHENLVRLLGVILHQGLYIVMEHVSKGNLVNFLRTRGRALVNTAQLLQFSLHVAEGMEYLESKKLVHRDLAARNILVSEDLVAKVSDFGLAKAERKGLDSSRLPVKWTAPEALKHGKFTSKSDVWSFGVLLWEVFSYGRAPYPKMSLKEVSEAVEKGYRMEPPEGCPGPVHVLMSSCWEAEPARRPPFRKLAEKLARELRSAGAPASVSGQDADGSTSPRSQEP
T2 sequence (Q02763 824-1096 limits assumed, change not shown): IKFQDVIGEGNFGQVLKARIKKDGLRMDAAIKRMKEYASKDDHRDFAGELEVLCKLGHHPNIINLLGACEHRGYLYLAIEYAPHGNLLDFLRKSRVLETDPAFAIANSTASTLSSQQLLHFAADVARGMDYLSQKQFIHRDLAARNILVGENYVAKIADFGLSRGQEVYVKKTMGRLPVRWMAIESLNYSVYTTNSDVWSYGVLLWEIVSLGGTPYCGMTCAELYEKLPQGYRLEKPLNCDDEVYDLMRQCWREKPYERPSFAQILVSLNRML
T15 sequence (P06239 245-498 limits assumed, change not shown): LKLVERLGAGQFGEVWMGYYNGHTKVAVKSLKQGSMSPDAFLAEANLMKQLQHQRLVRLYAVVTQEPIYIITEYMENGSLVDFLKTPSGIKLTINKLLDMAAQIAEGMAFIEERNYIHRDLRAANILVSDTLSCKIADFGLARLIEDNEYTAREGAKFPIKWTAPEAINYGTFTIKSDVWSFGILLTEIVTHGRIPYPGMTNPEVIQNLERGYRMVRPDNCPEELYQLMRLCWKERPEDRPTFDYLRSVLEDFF
Ck1gamma2, sequence (P78368 whole entry): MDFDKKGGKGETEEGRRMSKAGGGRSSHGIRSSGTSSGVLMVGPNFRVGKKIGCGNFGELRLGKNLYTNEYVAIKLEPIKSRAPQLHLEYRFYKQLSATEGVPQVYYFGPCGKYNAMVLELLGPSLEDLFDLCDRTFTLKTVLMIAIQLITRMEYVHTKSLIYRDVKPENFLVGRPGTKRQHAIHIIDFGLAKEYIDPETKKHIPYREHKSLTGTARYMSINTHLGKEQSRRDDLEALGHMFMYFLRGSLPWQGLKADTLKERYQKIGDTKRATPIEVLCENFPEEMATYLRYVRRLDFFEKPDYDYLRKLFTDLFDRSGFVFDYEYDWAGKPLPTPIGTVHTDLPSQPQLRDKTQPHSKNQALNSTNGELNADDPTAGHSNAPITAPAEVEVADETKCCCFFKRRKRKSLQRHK
JNK2alpha2, sequence (P45984 whole entry): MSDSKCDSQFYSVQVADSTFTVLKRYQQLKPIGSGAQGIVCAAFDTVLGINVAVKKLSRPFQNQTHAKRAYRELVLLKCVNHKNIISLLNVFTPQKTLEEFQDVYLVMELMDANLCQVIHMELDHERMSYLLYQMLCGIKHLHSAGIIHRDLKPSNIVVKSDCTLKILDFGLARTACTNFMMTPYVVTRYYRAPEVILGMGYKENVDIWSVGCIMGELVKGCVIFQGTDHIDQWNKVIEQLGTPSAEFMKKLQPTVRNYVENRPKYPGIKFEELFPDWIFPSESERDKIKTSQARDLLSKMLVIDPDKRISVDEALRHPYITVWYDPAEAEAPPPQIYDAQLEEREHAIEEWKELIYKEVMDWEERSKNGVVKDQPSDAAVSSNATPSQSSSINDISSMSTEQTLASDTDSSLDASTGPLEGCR
T4 sequence (P17948 827-1158 limits assumed, change not shown): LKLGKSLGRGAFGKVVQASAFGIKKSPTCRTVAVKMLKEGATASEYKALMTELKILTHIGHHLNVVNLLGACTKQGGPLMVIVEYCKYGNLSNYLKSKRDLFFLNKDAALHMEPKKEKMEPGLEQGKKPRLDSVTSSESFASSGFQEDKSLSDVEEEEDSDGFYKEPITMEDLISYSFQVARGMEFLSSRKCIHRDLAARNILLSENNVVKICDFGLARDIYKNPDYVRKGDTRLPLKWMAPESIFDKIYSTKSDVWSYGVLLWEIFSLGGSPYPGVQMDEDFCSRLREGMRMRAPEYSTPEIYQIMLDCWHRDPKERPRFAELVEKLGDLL
Aurora_A, sequence (O14965 whole entry): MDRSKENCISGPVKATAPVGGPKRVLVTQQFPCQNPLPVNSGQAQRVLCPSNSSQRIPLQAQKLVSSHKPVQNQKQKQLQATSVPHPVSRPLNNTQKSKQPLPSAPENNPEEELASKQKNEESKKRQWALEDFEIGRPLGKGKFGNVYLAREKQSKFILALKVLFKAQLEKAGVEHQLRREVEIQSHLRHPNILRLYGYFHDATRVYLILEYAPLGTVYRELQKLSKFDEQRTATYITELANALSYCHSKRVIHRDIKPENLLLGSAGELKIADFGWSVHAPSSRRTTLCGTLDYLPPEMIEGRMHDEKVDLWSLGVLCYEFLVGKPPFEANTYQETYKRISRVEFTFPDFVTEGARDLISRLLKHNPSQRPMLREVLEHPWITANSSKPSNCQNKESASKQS
T5 sequence (P21802 481-770 limits assumed, change not shown): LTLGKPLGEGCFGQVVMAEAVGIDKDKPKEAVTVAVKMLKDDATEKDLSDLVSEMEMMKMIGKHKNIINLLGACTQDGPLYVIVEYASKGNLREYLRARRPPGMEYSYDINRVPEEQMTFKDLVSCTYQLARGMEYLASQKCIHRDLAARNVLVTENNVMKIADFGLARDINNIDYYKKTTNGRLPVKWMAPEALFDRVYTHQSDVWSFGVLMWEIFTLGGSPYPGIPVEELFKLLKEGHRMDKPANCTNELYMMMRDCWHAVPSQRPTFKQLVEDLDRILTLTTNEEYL

CNC(=O)c1cc(Oc2ccc3nc(NC4CCCCC4O)sc3c2)ccn1 (stereo not shown) [Compound (I)]
30 to 70%: inhibition at 0.05 µM [35]
36%: inhibition at 5 µM ([17]; read-out: % inhibition @ 5 μM, Syk (h))
> 25 µM: IC50 [2] | IC50 [8] | IC50 [9] | IC50 [11] | IC50 [12] | IC50 [14]
32%: inhibition at 0.5 µM ([17]; read-out: % inhibition @ 0.5 μM, Syk (h))
-15%: inhibition at 20 µM ([17]; read-out: % inhibition @ 20 μM, Syk (h))
did not affect: survival of fully differentiated, cytokine-polarized human macrophages (M1 or M2) [34]
< 71 nM: EC50 [33]
> 10 µM: IC50 [1] | IC50 [3] | IC50 [4] | IC50 [5] | IC50 [6] | IC50 [7] | IC50 [10] | IC50 [13] | IC50 [15] | IC50 [16] | EC50 [18] | EC50 [19] | EC50 [20] | EC50 [21] | EC50 [22] | EC50 [23] | EC50 [24] | EC50 [25] | EC50 [26] | EC50 [27] | EC50 [28] | EC50 [29] | EC50 [30] | EC50 [31] | EC50 [32]
